This assay has as its system U251. Kind of assay: U251 Vacuolization Assay (24h). The class given is cell-based. The settings on record: Homo sapiens, U-251. The procedure: As used herein the term “EC50 (μM)” refers to the μM concentration of a compound that is required for 50% activity in a vacuolization assay.
Example A—U251 Vacuolization Assay Data (24h) for Compounds of Examples 8-56

Regarding `Cc1ccc(Nc2nc(NCc3c[nH]c4ccccc34)nc(N3CCOCC3)n2)cc1` [Example 8, N-(1H-Indol-3-ylmethyl)-6-morpholin-4-yl-N′-p-tolyl-[1,3,5]triazine-2,4-diamine], the EC50 (in general, the midpoint of the concentration-response curve) lay in the range of 1 to 10 µM.

For `Cc1cccc(Nc2nc(N/N=C/c3c[nH]c4ccccc34)nc(N3CCOCC3)n2)c1` [Example 9, {4-[N′-(1H-Indol-3-ylmethylene)-hydrazino]-6-morpholin-4-yl-[1,3,5]triazin-2-yl}-m-tolyl-amine], the EC50 is at most 1 µM.

With `Fc1ccc(Nc2nc(N/N=C/c3c[nH]c4ccccc34)nc(N3CCOCC3)n2)cc1` [Example 10, (4-Fluoro-phenyl)-{4-[N′-(1H-indol-3-ylmethylene)-hydrazino]-6-morpholin-4-yl-[1,3,5]triazin-2-yl}-amine], the EC50 was at most 1 µM.

`Clc1ccc(Nc2nc(N/N=C/c3c[nH]c4ccccc34)nc(N3CCOCC3)n2)cc1` [Example 11, (E)-4-(2-((1h-indol-3-yl)methylene)hydrazinyl)-n-(4-chlorophenyl)-6-morpholino-1,3,5-triazin-2-amine]: the EC50 was at most 1 µM.

`COc1ccc(Nc2nc(N/N=C/c3c[nH]c4ccccc34)nc(N3CCOCC3)n2)cc1` [Example 12, {4-[N′-(1H-Indol-3-ylmethylene)-hydrazino]-6-morpholin-4-yl-[1,3,5]triazin-2-yl}-(4-methoxy-phenyl)-amine] yielded an EC50 of at most 1 µM.

As to `Cc1ccc(Nc2nc(NCCO)nc(N/N=C/c3c[nH]c4ccccc34)n2)cc1` [Example 13, 2-{4-[N′-(1H-Indol-3-ylmethylene)-hydrazino]-6-p-tolylamino-[1,3,5]triazin-2-ylamino}-ethanol], the EC50 is above 50 µM.

On to `Cc1ccc(Nc2nc(N/N=C/c3c[nH]c4ccccc34)nc(N(CCO)CCO)n2)cc1` [Example 14, 2-((2-Hydroxy-ethyl)-{4-[N′-(1H-indol-3-ylmethylene)-hydrazino]-6-p-tolylamino-[1,3,5]triazin-2-yl}-amino)-ethanol], for which the EC50 is above 50 µM.

`Cc1ccc(Nc2nc(N/N=C/c3c[nH]c4ccccc34)nc(N3CCCCC3)n2)cc1` [Example 15, {4-[N′-(1H-Indol-3-ylmethylene)-hydrazino]-6-piperidin-1-yl-[1,3,5]triazin-2-yl}-p-tolyl-amine] came in with an EC50 above 50 µM.

In turn, `Cc1ccc(Nc2nc(N/N=C/c3c[nH]c4ccccc34)nc(N3CCCC3)n2)cc1` [Example 16, {4-[N′-(1H-Indol-3-ylmethylene)-hydrazino]-6-pyrrolidin-1-yl-[1,3,5]triazin-2-yl}-p-tolyl-amine] returned an EC50 above 50 µM.

On to `Cc1ccc(Nc2nc(N/N=C/c3c[nH]c4ccccc34)nc(N3CCN(C)CC3)n2)cc1` [Example 17, [4-[N′-(1H-Indol-3-ylmethylene)-hydrazino]-6-(4-methyl-piperazin-1-yl)-[1,3,5]triazin-2-yl]-p-tolyl-amine], for which the EC50 was above 50 µM.

`Cc1ccc(Nc2nc(N/N=C/c3c[nH]c4ccccc34)nc(N3CCNCC3)n2)cc1` [Example 18, {4-[N′-(1H-Indol-3-ylmethylene)-hydrazino]-6-piperazin-1-yl-[1,3,5]triazin-2-yl}-p-tolyl-amine] displayed an EC50 above 50 µM.

Consider `Cc1ccccc1Nc1nc(N/N=C/c2c[nH]c3ccccc23)nc(N2CCOCC2)n1` [Example 19, {4-[N′-(1H-Indol-3-ylmethylene)-hydrazino]-6-morpholin-4-yl-[1,3,5]triazin-2-yl}-o-tolyl-amine], for which the EC50 was at most 1 µM.

`FC(F)(F)c1ccc(Nc2nc(N/N=C/c3c[nH]c4ccccc34)nc(N3CCOCC3)n2)cc1` [Example 20, (E)-4-(2-((1h-indol-3-yl)methylene)hydrazinyl)-6-morpholino-n-(4-(trifluoromethyl)phenyl)-1,3,5-triazin-2-amine]: the EC50 is at most 1 µM.

Compound `Brc1ccc(Nc2nc(N/N=C/c3c[nH]c4ccccc34)nc(N3CCOCC3)n2)cc1` [Example 21, (E)-4-(2-((1h-indol-3-yl)methylene)hydrazinyl)-n-(4-bromophenyl)-6-morpholino-1,3,5-triazin-2-amine] had an EC50 of at most 1 µM.

On to `N#Cc1ccc(Nc2nc(N/N=C/c3c[nH]c4ccccc34)nc(N3CCOCC3)n2)cc1` [Example 22, (E)-4-((4-(2-((1H-indol-3-yl)methylene)hydrazinyl)-6-morpholino-1,3,5-triazin-2-yl)amino)benzonitrile], for which the EC50 is at most 1 µM.

`Cc1ccc(Nc2nc(N/N=C\c3cccnc3)nc(N3CCOCC3)n2)cc1` [Example 23, [4-Morpholin-4-yl-6-(N′-pyridin-3-ylmethylene-hydrazino)-[1,3,5]triazin-2-yl]-p-tolyl-amine] came in with an EC50 of 1 to 10 µM.

Turning to `Cc1ccc(Nc2nc(N/N=C\c3cc[nH]c3)nc(N3CCOCC3)n2)cc1` [Example 24, {4-Morpholin-4-yl-6-[N′-(1H-pyrrol-3-ylmethylene)-hydrazino]-[1,3,5]triazin-2-yl}-p-tolyl-amine], the EC50 was in the range of 10 to 50 µM.

Turning to `Clc1cccc(Nc2nc(N/N=C/c3c[nH]c4ccccc34)nc(N3CCOCC3)n2)c1` [Example 25, (3-Chloro-phenyl)-{4-[N′-(1H-indol-3-ylmethylene)-hydrazino]-6-morpholin-4-yl-[1,3,5]triazin-2-yl}-amine], the EC50 was at most 1 µM.

Consider `O=[N+]([O-])c1ccc(Nc2nc(N/N=C/c3c[nH]c4ccccc34)nc(N3CCOCC3)n2)cc1` [Example 26, (E)-4-(2-((1H-indol-3-yl)methylene)hydrazinyl)-6-morpholino-N-(4-nitrophenyl)-1,3,5-triazin-2-amine], for which the EC50 is at most 1 µM.

Compound `Nc1ccc(Nc2nc(N/N=C/c3c[nH]c4ccccc34)nc(N3CCOCC3)n2)cc1` [Example 27, N1-(4-(2-((1h-indol-3-yl)methylene)hydrazinyl)-6-morpholino-1,3,5-triazin-2-yl)benzene-1,4-diamine] showed an EC50 of at most 1 µM.

Take `CC(=O)Nc1ccc(Nc2nc(N/N=C/c3c[nH]c4ccccc34)nc(N3CCOCC3)n2)cc1` [Example 28, (E)-N-(4-((4-(2-((1H-indol-3-yl)methylene)hydrazinyl)-6-morpholino-1,3,5-triazin-2-yl)amino)phenyl)acetamide]: the concentration giving a half-maximal response (EC50) is at most 1 µM.

`COCCN(CCOC)c1nc(N/N=C/c2c[nH]c3ccccc23)nc(Nc2ccc(C)cc2)n1` [Example 29, (E)-6-(2-((1H-Indol-3-yl)methylene)hydrazinyl)-N2,N2-bis(2-methoxyethyl)-N4-(p-tolyl)-1,3,5-triazine-2,4-diamine] had an EC50 above 50 µM.

With `Cc1ccc(Nc2nc(N/N=C/c3c[nH]c4ccccc34)nc(N(C)C)n2)cc1` [Example 30, (E)-6-(2-((1H-Indol-3-yl)methylene)hydrazinyl)-N2,N2-dimethyl-N4-(p-tolyl)-1,3,5-triazine-2,4-diamine], the EC50 is above 50 µM.

Compound `Cc1ccc(Nc2nc(N/N=C\c3csc4ccccc34)nc(N3CCOCC3)n2)cc1` [Example 31, [4-(N′-Benzo[b]thiophen-3-ylmethylene-hydrazino)-6-morpholin-4-yl-[1,3,5]triazin-2-yl]-p-tolyl-amine] yielded an EC50 of 1 to 10 µM.

Compound `Cc1ccc(Nc2nc(N/N=C/c3ccncc3)nc(N3CCOCC3)n2)cc1` [Example 32, [4-Morpholin-4-yl-6-(N′-pyridin-4-ylmethylene-hydrazino)-[1,3,5]triazin-2-yl]-p-tolyl-amine] yielded an EC50 of 1 to 10 µM.

As for `Cc1ccc(Nc2nc(N/N=C/c3ccccc3)nc(N3CCOCC3)n2)cc1` [Example 33, [4-(N′-Benzylidene-hydrazino)-6-morpholin-4-yl-[1,3,5]triazin-2-yl]-p-tolyl-amine], the EC50 is at most 1 µM.

As to `CN(C)c1ccc(Nc2nc(N/N=C/c3c[nH]c4ccccc34)nc(N3CCOCC3)n2)cc1` [Example 34, (E)-N1-(4-(2-((1H-indol-3-yl)methylene)hydrazinyl)-6-morpholino-1,3,5-triazin-2-yl)-N4,N4-dimethylbenzene-1,4-diamine], the EC50 is at most 1 µM.

In turn, `CCN(C)c1nc(N/N=C/c2c[nH]c3ccccc23)nc(Nc2ccc(C)cc2)n1` [Example 35, (E)-6-(2-((1H-Indol-3-yl)methylene)hydrazinyl)-N2-ethyl-N2-methyl-N4-(p-tolyl)-1,3,5-triazine-2,4-diamine] showed an EC50 above 50 µM.

As to `Cc1ccc(Nc2nc(N/N=C/c3c[nH]c4ccccc34)nc(N3CCC3)n2)cc1` [Example 36, (E)-4-(2-((1H-Indol-3-yl)methylene)hydrazinyl)-6-(azetidin-1-yl)-N-(p-tolyl)-1,3,5-triazin-2-amine], the EC50 was above 50 µM.

`Cc1ccc(Nc2nc(N/N=C/c3c[nH]c4ccccc34)nc(N3CCC(O)CC3)n2)cc1` [Example 37, (E)-1-(4-(2-((1H-Indol-3-yl)methylene)hydrazinyl)-6-(p-tolylamino)-1,3,5-triazin-2-yl)piperidin-4-ol] registered an EC50 above 50 µM.

Compound `Cc1ccc(Nc2nc(N/N=C/c3c[nH]c4ccccc34)nc(N3CCSCC3)n2)cc1` [Example 38, (E)-4-(2-((1H-Indol-3-yl)methylene)hydrazinyl)-6-thiomorpholino-N-(p-tolyl)-1,3,5-triazin-2-amine] gave a 50% effective concentration (EC50) above 50 µM.

On to `Cc1ccc(Nc2cc(N/N=C/c3c[nH]c4ccccc34)nc(N3CCOCC3)n2)cc1` [Example 39], for which the EC50 was 1 to 10 µM.

Compound `Cc1ccc(Nc2cc(-n3ncc4c5ccccc5[nH]c43)nc(N3CCOCC3)n2)cc1` [Example 40, [2-morpholin-4-yl-6-(8H-pyrazolo[3,4-b]indol-1-yl)-pyrimidin-4-yl]-p-tolyl-amine] came in with an EC50 of 10 to 50 µM.

For the compound `Cc1ccc(Nc2cc(N3CCOCC3)nc(N/N=C/c3c[nH]c4ccccc34)n2)cc1` [Example 41, {2-[N′-(1H-indol-3-ylmethylene)-hydrazino]-6-morpholin-4-yl-pyrimidin-4-yl}-p-tolyl-amine], the EC50 is 1 to 10 µM.

Take `Clc1ccccc1Nc1nc(N/N=C/c2c[nH]c3ccccc23)nc(N2CCOCC2)n1` [Example 42, (2-Chloro-phenyl)-{4-[N′-(1H-indol-3-ylmethylene)-hydrazino]-6-morpholin-4-yl-[1,3,5]triazin-2-yl}-amine]: the EC50 was at most 1 µM.

The record behind these values is patent publication US12030896B2, “PIKfyve inhibitors” (Mayo Foundation for Medical Education and Research, priority 2018, dated 2024).
